The subject of one assay is Androgen Receptor (AR). The assay can be described thus: Androgen Receptor expression by Western blot in LNCaP cells. It is filed as cell-based, human. To be noted: 25 µM, 24 hours. Here is the method: Figure 5 AMPK activation by compound 8c in prostate cancer cells. (A) PC-3 and LNCaP cells were treated with vehicle, 25 µM compound 8c, 25 µM compound 8c + 5 μM Dorsomorphin (8c + D) or 5 μM Dorsomorphin (D), for 1 hour or 24 hours and levels of the phosphorylated AMPK (pAMPK), phosphorylated ACC (pACC), phosphorylated Raptor (pRaptor) forms and HIF1α were determined by Western blot. Upper panel, representative Western blot of three different experiments. β-tubulin (β-Tub) serves as a loading control. Lower panel, densitometric analyses of bands represented as the mean of the ratio pAMPK/AMPK or pACC/ACC. (B) Cell viability monitored by MTT assay in PC-3 and LNCaP cells treated with vehicle, 25 µM and 50 μM compound 8c alone or in the presence of 5 μM Dorsomorphin or transfected with control siRNA (siC) or α1AMPK-selective siRNA (siAMPK). (C) LNCaP cells were treated with vehicle, 25 µM compound 8c, 25 µM compound 8c + 5 μM Dorsomorphin (8c + D) or 5 μM Dorsomorphin (D), for 24 hours and levels of Androgen Receptor (AR), Prostate specific antigen (PSA) and Prostate specific membrane antigen (PSMA) were determined by Western blot.Values were normalized with the control and represent the mean ± SD of at least three independent experiments. *p < 0.05 and **p < 0.01 compared to control and ^#p < 0.05 and ^##p < 0.01 compared with 8c-treated group by the Student’s t-test. […]

For the next assay, the system named is PC-3 cells. Put plainly: Cell viability by MTT assay, PC-3. It is filed as cell-based, human. Here is the method: Figure 3 Comparison of the effect of 2-oxindole fluorinated derivatives on the proliferation of human prostate cancer cells. (A) Normal (PTN2 and RWPE-1) and cancer (PC3,DU145 and LNCaP) prostate cells were treated with different doses of the compounds for 24 hours and cell viability was monitored by MTT assay. […] (C) PC-3, DU145 and LNCaP cells were treated with 25 µM of compound 8c for different times. Values were normalized with the control and represent the mean ± SD of at least three independent experiments. *p < 0.05 and **p < 0.01 compared to control by the Student’s - test.
Human prostate cancer epithelial PC-3, DU145 and LNCaP and human prostate normal RWPE-1 cells were purchased from American Type Culture Collection (ATCC CRL-1435 CRL-1740 and CRL 11609 respectively) (Rockville, MD, USA). The human prostate normal PNT2 cell line was purchased to ECACC (European Collection of Cell cultures, Salisbury, SP4 0JG, UK). Cells were routinely grown in RPMI 1640 medium supplemented with 100 IU/ml penicillin G sodium, 100 µg/ml streptomycin sulfate, 0.25 µg/ml amphotericin B (Invitrogen, Paisley, UK) and 10% fetal calf serum. Cells were used at passages between 10–20. For treatment experiments, cells were plated and grown over night, the medium was then replaced with serum-free RPMI 1640 for 24 hours and then incubated with different doses of the compounds for the indicated times.
Cell viability was determined by 3-(4,5-dimethylthiazol-2-yl)-2,5-diphenyltetrazolium bromide (MTT) (Sigma-Aldrich) method. In brief, a total of 5000 cells/well were seeded into 12-well plate in a final volume of 1 mL. After treatments, 20 µl MTT solution (5 mg/ml in PBS) was added to the medium and cells were incubated at 37 °C for 4 h. Then, the supernatant was discarded and isopropanol was added to dissolve the formazan crystals. Treatments were carried out in triplicate. The optical density in each well was evaluated by measurement of absorbance at 490 and 650 nm using a microplate reader (ELX 800 Bio-Tek Intruments, INC). IC50 values were calculated using GraphPad Prism vs 6.0 (GraphPad Software, Inc, La Jolla, CA, USA). Cell viability was also determined by counting viable and dead cells by Trypan blue staining. Trypan blue positive and negative cells were counted using a Countess^TM automated cell counter (Invitrogen, Carlsbad, CA, USA). Results were expressed in relation to total number of cells counted.

pIC50: −log10 of the molar value.

Experimental findings from PMC5847527, “Identification of a novel 2-oxindole fluorinated derivative as in vivo antitumor agent for prostate cancer acting via AMPK activation” (Scientific Reports, 2018) are described below.

As for `O=C1Nc2ccccc2C1(F)Cc1ccc(-c2ccccc2)o1` (stereo not drawn) [Compound 8c, 3-fluoro-3-((5-phenylfuran-2-yl)methyl)indolin-2-one], the “expression of AR” value in the assay with Androgen Receptor (AR) is “markedly reduced the expression of AR”. The pIC50 in the assay with PC-3 cells (Homo sapiens, PC-3, MTT, 24 hours) was 4.74. The “inhibitory efficacy on cells viability at 50 μM” value in the assay on PC-3 cells (PC-3, 50 μM) was determined as 84%.
